Reference: publication PMC3747596 (PLoS ONE, 2013)
Like-named read-outs stand apart in the source and are kept apart here.

Legend:
mice = details: cited from earlier work
μ opioid receptor = biological target: T1, μ opioid receptor (Homo sapiens, UniProt P35372); assay: Radioligand displacement, μ; type: binding; details: binding curve File S1, Mu Opiod Receptor, [3H]DAMGO (0.3 nM), Standard Binding Buffer, read-out: Ki
T1 construct: expressed in transfected cells

[1] = Caco-2 cell monolayer permeation; details: human, Caco-2, pH 7.4

T1 sequence (P35372 whole entry): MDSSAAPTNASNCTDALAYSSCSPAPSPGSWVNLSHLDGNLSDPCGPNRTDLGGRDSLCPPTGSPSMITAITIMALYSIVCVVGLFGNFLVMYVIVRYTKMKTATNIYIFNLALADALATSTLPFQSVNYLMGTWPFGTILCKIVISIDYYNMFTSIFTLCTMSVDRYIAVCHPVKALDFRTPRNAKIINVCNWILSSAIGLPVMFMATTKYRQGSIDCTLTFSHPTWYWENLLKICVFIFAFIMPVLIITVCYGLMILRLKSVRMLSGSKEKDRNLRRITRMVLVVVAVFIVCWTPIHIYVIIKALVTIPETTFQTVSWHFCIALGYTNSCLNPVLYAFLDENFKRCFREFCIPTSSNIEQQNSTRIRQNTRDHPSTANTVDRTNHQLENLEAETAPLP

NCc1ccc2[nH]c3c(c2c1)CC1(O)C2Cc4ccc(O)c5c4C1(CCN2CC1CC1)C3O5 (stereo not shown) [5′-aminomethylnaltrindole]
toxic signs (mice; 20 mg/kg i.p.): gasping and convulsions

DAM80: reference ligand of the mu opioid binding curve
Ki (μ opioid receptor; listed as DAM30): 0.41 nM | Ki (μ opioid receptor): 0.54 nM

O=C1CC[C@@]2(O)[C@H]3Cc4ccc(O)c5c4[C@@]2(CCN3CC2CC2)[C@H]1O5 [Naltrexone]
LD50 (mice; mice, s.c.): 570 mg/kg | Papp A→B at 120 min [1]: 59 ×10⁻⁶ cm/s | Papp B→A at 120 min [1]: 270 ×10⁻⁶ cm/s | efflux ratio at 120 min [1]: 5.7
